Measurements: ChEMBL document CHEMBL1201862, “PubChem BioAssay data set” (2004)
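The compound was tested at five concentrations on cells cultured in 96-well plates, with a 48-hour exposure period. The concentration for 50% growth inhibition is given as GI50.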 Activity calls are given as the source filed them. Cut-off read from the data, not from the text of the source: active = GI50 up to about 1.1 µM and inactive = higher.

Tests used:
Experiment in all cases: DTP human tumour cell line panel, 48 h
CCRF-CEM = test system: CCRF-CEM
EKVX = test system: EKVX
OVCAR-3 = test system: OVCAR-3
SK-MEL-5 = test system: SK-MEL-5
OVCAR-5 = test system: OVCAR-5
SK-MEL-28 = test system: SK-MEL-28
PC-3 = test system: PC-3
RXF 393 = test system: RXF 393
MCF7 = test system: MCF7
A498 = test system: A498
U-251 = test system: U-251
A549 = test system: A549
SR = test system: SR
Malme-3M = test system: Malme-3M
DU-145 = test system: DU-145
MDA-MB-231 = test system: MDA-MB-231
NCI-H522 = test system: NCI-H522
SNB-75 = test system: SNB-75
BT-549 = test system: BT-549

Structure (SMILES)	GI50 (CCRF-CEM)	GI50 (EKVX)	GI50 (OVCAR-3)	GI50 (SK-MEL-5)	GI50 (OVCAR-5)	GI50 (SK-MEL-28)	GI50 (PC-3)	GI50 (RXF 393)	GI50 (MCF7)	GI50 (A498)	GI50 (U-251)	GI50 (A549)	GI50 (SR)	GI50 (Malme-3M)	GI50 (DU-145)	GI50 (MDA-MB-231)	GI50 (NCI-H522)	GI50 (SNB-75)	GI50 (BT-549)
Cc1ccc(-c2cc(-c3c(C)nn(C)c(=O)c3N)n[nH]2)cc1	> 100 µM (inactive)	83 µM (inactive)	88.3 µM (inactive)	> 100 µM (inactive)	> 100 µM (inactive)	> 100 µM (inactive)	> 100 µM (inactive)	> 100 µM (inactive)	> 100 µM (inactive)	28.5 µM (inactive)	> 100 µM (inactive)	> 100 µM (inactive)	> 100 µM (inactive)	> 100 µM (inactive)	> 100 µM (inactive)	> 100 µM (inactive)	–	–	–
c1ccc2c(c1)SCCC2NC1=NCCO1 (stereo not given)	> 100 µM (inactive)	> 100 µM (inactive)	> 100 µM (inactive)	> 100 µM (inactive)	> 100 µM (inactive)	> 100 µM (inactive)	> 100 µM (inactive)	> 100 µM (inactive)	> 100 µM (inactive)	> 100 µM (inactive)	> 100 µM (inactive)	> 100 µM (inactive)	> 100 µM (inactive)	> 100 µM (inactive)	> 100 µM (inactive)	> 100 µM (inactive)	> 100 µM (inactive)	> 100 µM (inactive)	–
CCN(CC)c1nc(N(C)C)c2ccc(OC)cc2n1	–	3.95 µM (inactive)	–	11.6 µM (inactive)	16.7 µM (inactive)	12.5 µM (inactive)	17.3 µM (inactive)	13.6 µM (inactive)	10.9 µM (inactive)	–	20.2 µM (inactive)	19.7 µM (inactive)	12.7 µM (inactive)	18.3 µM (inactive)	–	17.1 µM (inactive)	11.7 µM (inactive)	15.6 µM (inactive)	22.8 µM (inactive)
O=C1Cc2cc3ccccc3nc2-c2ccccc2N1	> 100 µM (inactive)	67 µM (inactive)	73.1 µM (inactive)	> 100 µM (inactive)	> 100 µM (inactive)	> 100 µM (inactive)	> 100 µM (inactive)	70.5 µM (inactive)	49 µM (inactive)	61.5 µM (inactive)	60 µM (inactive)	63.7 µM (inactive)	–	> 100 µM (inactive)	79.6 µM (inactive)	20.5 µM (inactive)	26.7 µM (inactive)	24.7 µM (inactive)	92.9 µM (inactive)
Cc1cc(S(=O)(=O)Nc2nc3ccsc3c(=O)n2N)c(S)cc1Cl	71.9 µM (inactive)	> 100 µM (inactive)	> 100 µM (inactive)	56.9 µM (inactive)	35.2 µM (inactive)	> 100 µM (inactive)	> 100 µM (inactive)	–	> 100 µM (inactive)	–	57.1 µM (inactive)	> 100 µM (inactive)	–	81.1 µM (inactive)	> 100 µM (inactive)	70.1 µM (inactive)	44 µM (inactive)	> 100 µM (inactive)	> 100 µM (inactive)
CCN(CCCl)c1cccc(NC(=O)c2ccc(C(=O)Nc3cccc(CN(C)C)c3)cc2)c1	0.027 µM (active)	–	–	0.0118 µM (active)	1.48 µM (inactive)	0.165 µM (active)	0.044 µM (active)	< 0.01 µM (active)	0.0215 µM (active)	0.136 µM (active)	0.0349 µM (active)	0.211 µM (active)	0.037 µM (active)	0.049 µM (active)	0.0432 µM (active)	0.195 µM (active)	< 0.01 µM (active)	0.207 µM (active)	–
Cc1nc(C(=O)O)c2ccccc2n1	> 100 µM (inactive)	–	> 100 µM (inactive)	> 100 µM (inactive)	> 100 µM (inactive)	> 100 µM (inactive)	–	> 100 µM (inactive)	–	> 100 µM (inactive)	> 100 µM (inactive)	> 100 µM (inactive)	> 100 µM (inactive)	> 100 µM (inactive)	–	–	–	> 100 µM (inactive)	–
CC(=O)[C@@]1(C)CC2(CCN(C)CC2)OC1C (stereo not given in full)	–	> 100 µM (inactive)	> 100 µM (inactive)	> 100 µM (inactive)	> 100 µM (inactive)	> 100 µM (inactive)	–	> 100 µM (inactive)	–	> 100 µM (inactive)	> 100 µM (inactive)	> 100 µM (inactive)	–	> 100 µM (inactive)	> 100 µM (inactive)	> 100 µM (inactive)	> 100 µM (inactive)	> 100 µM (inactive)	> 100 µM (inactive)
COc1ccc(OC)c2c(/C=C/c3ccc(N(C)C)cc3)ccnc12	2.48 µM (inactive)	> 10 µM (inactive)	> 10 µM (inactive)	> 10 µM (inactive)	> 10 µM (inactive)	3.3 µM (inactive)	> 10 µM (inactive)	> 10 µM (inactive)	3.52 µM (inactive)	> 10 µM (inactive)	5.31 µM (inactive)	> 10 µM (inactive)	–	4.51 µM (inactive)	> 10 µM (inactive)	8.34 µM (inactive)	8.02 µM (inactive)	6.53 µM (inactive)	> 10 µM (inactive)
Oc1c(Cl)c(Cl)c(O)c2c1CCCC2	2.08 µM (inactive)	7.85 µM (inactive)	–	13 µM (inactive)	–	13.6 µM (inactive)	17.7 µM (inactive)	10.6 µM (inactive)	2.13 µM (inactive)	19.1 µM (inactive)	17.5 µM (inactive)	21 µM (inactive)	–	2.84 µM (inactive)	–	15.4 µM (inactive)	1.97 µM (inactive)	–	14.8 µM (inactive)
N=C(c1ccc(-c2cn3cc(C(=N)N4CCCC4)ccc3n2)cc1)N1CCCC1	20.8 µM (inactive)	> 100 µM (inactive)	> 100 µM (inactive)	> 100 µM (inactive)	> 100 µM (inactive)	> 100 µM (inactive)	> 100 µM (inactive)	> 100 µM (inactive)	–	–	> 100 µM (inactive)	> 100 µM (inactive)	> 100 µM (inactive)	> 100 µM (inactive)	> 100 µM (inactive)	> 100 µM (inactive)	> 100 µM (inactive)	> 100 µM (inactive)	> 100 µM (inactive)
Cc1oc2nc(N(C)C)nc(NN)c2c1C	> 100 µM (inactive)	> 100 µM (inactive)	> 100 µM (inactive)	> 100 µM (inactive)	> 100 µM (inactive)	> 100 µM (inactive)	> 100 µM (inactive)	> 100 µM (inactive)	–	> 100 µM (inactive)	> 100 µM (inactive)	> 100 µM (inactive)	–	–	> 100 µM (inactive)	> 100 µM (inactive)	> 100 µM (inactive)	> 100 µM (inactive)	> 100 µM (inactive)
Cc1ccc(-n2cc(-c3ccc(Cl)cc3)c3c(N/N=C4\SCC(=O)N4C)ncnc32)cc1	> 100 µM (inactive)	18.3 µM (inactive)	10.8 µM (inactive)	3.81 µM (inactive)	45.4 µM (inactive)	2.44 µM (inactive)	2.72 µM (inactive)	7.18 µM (inactive)	–	11.5 µM (inactive)	6.71 µM (inactive)	4.72 µM (inactive)	20.7 µM (inactive)	3.31 µM (inactive)	> 100 µM (inactive)	4.99 µM (inactive)	5.27 µM (inactive)	–	15.6 µM (inactive)
CCOC(=O)c1cc(C2CCN(Cc3ccccc3)C2=O)c(C(=O)/C=C(/C)N)[nH]1 (stereo not given)	–	> 100 µM (inactive)	81.3 µM (inactive)	> 100 µM (inactive)	> 100 µM (inactive)	> 100 µM (inactive)	> 100 µM (inactive)	> 100 µM (inactive)	96.6 µM (inactive)	> 100 µM (inactive)	> 100 µM (inactive)	73.6 µM (inactive)	–	> 100 µM (inactive)	> 100 µM (inactive)	> 100 µM (inactive)	57.3 µM (inactive)	> 100 µM (inactive)	> 100 µM (inactive)
CCOC(=O)/C=C1\c2ccccc2C(=O)N1CC(=O)OCC	> 100 µM (inactive)	> 100 µM (inactive)	> 100 µM (inactive)	> 100 µM (inactive)	> 100 µM (inactive)	> 100 µM (inactive)	> 100 µM (inactive)	> 100 µM (inactive)	–	> 100 µM (inactive)	> 100 µM (inactive)	> 100 µM (inactive)	–	> 100 µM (inactive)	> 100 µM (inactive)	> 100 µM (inactive)	> 100 µM (inactive)	77.1 µM (inactive)	> 100 µM (inactive)
COC(=O)C1Cc2c([nH]c3ccccc23)-c2[nH]c3ccccc3c2CC(NC(C)=O)C(=O)NCC(=O)NCC(=O)N1 (stereo not given)	> 100 µM (inactive)	> 100 µM (inactive)	> 100 µM (inactive)	> 100 µM (inactive)	> 100 µM (inactive)	> 100 µM (inactive)	> 100 µM (inactive)	> 100 µM (inactive)	–	> 100 µM (inactive)	> 100 µM (inactive)	> 100 µM (inactive)	–	> 100 µM (inactive)	> 100 µM (inactive)	> 100 µM (inactive)	> 100 µM (inactive)	> 100 µM (inactive)	> 100 µM (inactive)
O=C1NC2c3c(I)sc(I)c3/C(=N\O)C2O1 (stereo not given)	24.3 µM (inactive)	10.9 µM (inactive)	18.2 µM (inactive)	–	30.5 µM (inactive)	41.8 µM (inactive)	39.2 µM (inactive)	12.7 µM (inactive)	33.8 µM (inactive)	33.6 µM (inactive)	23.1 µM (inactive)	48.9 µM (inactive)	29.9 µM (inactive)	25.1 µM (inactive)	53.7 µM (inactive)	24 µM (inactive)	–	59.6 µM (inactive)	–
